Laboratory results as given in ChEMBL document CHEMBL1201862, “PubChem BioAssay data set” (2004).
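Cells were grown in 96-well plates and exposed to each compound for 48 hours at five concentrations; endpoints were interpolated linearly between bracketing concentrations, or set to the highest concentration if not reached. GI50 marks 50% less growth.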 Active and inactive are the calls of the source. Rule as the data show it: active = GI50 up to about 1.1 µM and inactive = higher.

Legend:
Assay in all cases: NCI anticancer screen, dose series, 48 h
786-0 = tested on: 786-0
A498 = tested on: A498
A549 = tested on: A549
ACHN = tested on: ACHN
BT-549 = tested on: BT-549
CAKI-1 = tested on: CAKI-1
CCRF-CEM = tested on: CCRF-CEM
COLO 205 = tested on: COLO 205
DU-145 = tested on: DU-145
EKVX = tested on: EKVX
HCT-116 = tested on: HCT-116
HCT-15 = tested on: HCT-15
HL-60 = tested on: HL-60
HOP-62 = tested on: HOP-62
HOP-92 = tested on: HOP-92
HT-29 = tested on: HT-29
Hs-578T = tested on: Hs-578T
IGROV-1 = tested on: IGROV-1
K562 = tested on: K562
KM12 = tested on: KM12
LOX IMVI = tested on: LOX IMVI
M14 = tested on: M14
MCF7 = tested on: MCF7
MDA-MB-231 = tested on: MDA-MB-231
MDA-MB-435 = tested on: MDA-MB-435
MDA-N = tested on: MDA-N
MOLT-4 = tested on: MOLT-4
Malme-3M = tested on: Malme-3M
NCI-H226 = tested on: NCI-H226
NCI-H23 = tested on: NCI-H23
NCI-H460 = tested on: NCI-H460
NCI-H522 = tested on: NCI-H522
NCI/ADR-RES = tested on: NCI/ADR-RES
OVCAR-3 = tested on: OVCAR-3
OVCAR-4 = tested on: OVCAR-4
OVCAR-5 = tested on: OVCAR-5
OVCAR-8 = tested on: OVCAR-8
PC-3 = tested on: PC-3
RPMI-8226 = tested on: RPMI-8226
RXF 393 = tested on: RXF 393
SF-268 = tested on: SF-268
SF-295 = tested on: SF-295
SF-539 = tested on: SF-539
SK-MEL-28 = tested on: SK-MEL-28
SK-MEL-2 = tested on: SK-MEL-2
SK-MEL-5 = tested on: SK-MEL-5
SK-OV-3 = tested on: SK-OV-3
SN12C = tested on: SN12C
SNB-19 = tested on: SNB-19
SNB-75 = tested on: SNB-75
SR = tested on: SR
SW-620 = tested on: SW-620
T47D = tested on: T47D
TK-10 = tested on: TK-10
U-251 = tested on: U-251
UACC-257 = tested on: UACC-257
UACC-62 = tested on: UACC-62
UO-31 = tested on: UO-31

Measured: GI50

O=C(O)C1(C(=O)O)CCN(S(=O)(=O)c2ccccc2)CC1
> 100 µM: HCT-15
inactive: 786-0 > 100 µM | A498 > 100 µM | A549 > 100 µM | ACHN > 100 µM | BT-549 > 100 µM | CAKI-1 > 100 µM | CCRF-CEM > 100 µM | COLO 205 > 100 µM | DU-145 > 100 µM | EKVX > 100 µM | HCT-116 > 100 µM | HL-60 > 100 µM | HOP-62 > 100 µM | HOP-92 > 100 µM | HT-29 > 100 µM | Hs-578T > 100 µM | IGROV-1 > 100 µM | K562 > 100 µM | KM12 > 100 µM | LOX IMVI > 100 µM | M14 > 100 µM | MCF7 > 100 µM | MDA-MB-231 > 100 µM | MDA-MB-435 > 100 µM | MDA-N > 100 µM | MOLT-4 > 100 µM | Malme-3M > 100 µM | NCI-H226 > 100 µM | NCI-H23 > 100 µM | NCI-H460 > 100 µM | NCI-H522 > 100 µM | NCI/ADR-RES > 100 µM | OVCAR-3 > 100 µM | OVCAR-4 > 100 µM | OVCAR-5 > 100 µM | OVCAR-8 > 100 µM | PC-3 > 100 µM | RPMI-8226 > 100 µM | RXF 393 > 100 µM | SF-268 > 100 µM | SF-295 > 100 µM | SF-539 > 100 µM | SK-MEL-28 > 100 µM | SK-MEL-2 > 100 µM | SK-MEL-5 > 100 µM | SK-OV-3 > 100 µM | SN12C > 100 µM | SNB-19 > 100 µM | SNB-75 > 100 µM | SR > 100 µM | SW-620 > 100 µM | T47D > 100 µM | TK-10 > 100 µM | U-251 > 100 µM | UACC-257 > 100 µM | UACC-62 > 100 µM | UO-31 > 100 µM

CC(C)c1ccccc1[S+]([O-])c1ccccc1C(C)(C)O (stereo not given)
inactive: 786-0 > 100 µM | A498 20 µM | A549 44.2 µM | ACHN > 100 µM | BT-549 > 100 µM | CAKI-1 > 100 µM | CCRF-CEM > 100 µM | COLO 205 > 100 µM | DU-145 > 100 µM | EKVX > 100 µM | HCT-116 > 100 µM | HL-60 82.6 µM | HOP-62 22.5 µM | HOP-92 > 100 µM | HT-29 96.2 µM | Hs-578T 50.4 µM | IGROV-1 > 100 µM | K562 60.4 µM | KM12 30.8 µM | LOX IMVI 69.5 µM | M14 > 100 µM | MCF7 > 100 µM | MDA-MB-231 88.9 µM | MDA-MB-435 39.6 µM | MDA-N 57.8 µM | MOLT-4 > 100 µM | Malme-3M > 100 µM | NCI-H226 21.3 µM | NCI-H23 > 100 µM | NCI-H460 30.8 µM | NCI-H522 96.8 µM | NCI/ADR-RES 64.6 µM | OVCAR-3 > 100 µM | OVCAR-4 > 100 µM | OVCAR-5 56.2 µM | OVCAR-8 > 100 µM | PC-3 > 100 µM | RPMI-8226 42.6 µM | RXF 393 > 100 µM | SF-268 > 100 µM | SF-295 21.1 µM | SF-539 > 100 µM | SK-MEL-28 > 100 µM | SK-MEL-2 67.6 µM | SK-MEL-5 27.2 µM | SK-OV-3 30.9 µM | SN12C > 100 µM | SNB-19 37.3 µM | SNB-75 32.3 µM | SR > 100 µM | SW-620 > 100 µM | T47D > 100 µM | TK-10 > 100 µM | U-251 18.9 µM | UACC-257 > 100 µM | UACC-62 > 100 µM
82 µM: HCT-15
